# Results reported in patent US20070141661A1, “Cell extract for high-functioned cell-free protein synthesis and method of preparing the extract” (priority 2003, published 2007).
# Legend:
# [1] = tested on: wheat embryo cell-free protein synthesis; assay: Wheat embryo cell-free protein synthesis, batch method, 14C-leucine incorporation with DHFR mRNA; type: biochemical; settings: for Inhibition of protein synthesis, nucleotide added alone: 0.5 mM AMP or 0.25 mM GMP alone, not shown in figures; for Effect of standard sugar on protein synthesis: final concentration 0.5 mM, FIG. 2C; for Effect on protein synthesis when added back in an equivalent amount to highly functionalized protein synthesis solution: filtrate or components isolated from filtrate, FIG. 1B/2B; for Time until protein synthesis reaction terminated after adding back: filtrate or filtrate-derived component added in equivalent amount
# Protocol: To an embryo extract solution, components necessary for translation were added and adjusted to prepare a translation reaction solution (30 mM HEPES-KOH, pH7.8, 100 mM potassium acetate, 2.7 mM magnesium acetate, 1.2 mM ATP, 0.25 mM GTP, 0.4 mM spermidine, 16 mM phosphocreatine, 40 μg/ml creatine kinase, 4 mM dithiothreitol, each 0.3 mM 19 kinds of leucine-lacking L-amino acids, and 0.005% sodium azide). The concentration of the embryo extract solution was 40 OD 260 nm per 1 ml of translation reaction solution). To this translation reaction solution, mRNA encoding dihydrofolate reductase (DHFR) (0.32 mg/ml) and ^14C-leucine were added, and protein synthesis was conducted at 26° C. through a batch method. The amount of synthesized protein was determined by measuring radioactivity of ^14C-labeled leucine incorporated into an acid-insoluble fraction as follows: a 3MM Whatman filter was blotted with […] of the reaction solution, and the filter was dipped into an ice-cold 10% TCA (trichloroacetic acid) for an hour, and then boiled in 5% TCA solution for 10 minutes. This filter was recovered and from which TCA and water were removed using ethanol and ether (50:50 vol), dried, and then radioactivity incorporated into a heat-TCA-insoluble fraction was measured by a liquid scintillation counter (toluene scintillator).
# Using these embryo extracts, following the method described in Example 1, and under a condition where the concentration of extract solution was 40 OD 260 nm, protein synthesis was conducted and their synthesis activities were compared. The activities of protein synthesis were determined by measuring radioactivities of ^14C/5 μL reaction solution, wherein ^14C had been incorporated into a heat-acid-insoluble fraction after a three hour-long reaction. As gelfiltration operation proceeded, the concentration of glucose in an extract solution was decreased, and completely corresponding to that, the activity of protein synthesis was increased, and simultaneously an extremely stabilized reaction solution for protein synthesis was produced.
# ATP in reaction solution = assay: Temporal change of ATP concentration during protein synthesis reaction (cellulose thin layer chromatography, UV 260 nm); type: biochemical, wheat; settings: for Concentration of ATP in system after adding sugar: 0.5 mM, within an hour after reaction, data not shown
# Protocol: Next, to study the relation between decrease in concentration of ATP and the inhibition and destabilization mechanism of protein synthesis reaction, temporal changes of concentration of ATP under incubation was measured in the present and absence of glucose. Experiment was conducted on chromatography using a cellulose thin layer plate (Avicel: purchased from Funakoshi Co., Ltd) and a developing solvent of isobutyric acid:0.5 M ammonia (5:3). Using a synthesis system prepared with an extract solution treated through Amicon ultramembrane six times, protein synthesis reaction was conducted with or without adding glucose (1 mM), and to samples fractionated with time, an equivalent amount of cold ethanol was added, then supernatants obtained from centrifugation at 10,000×g were used to fractionate nucleotides on a thin layer plate. Using standard nucleotides from a conventional method as a fractionation marker, ATP was extracted from fractions, which was scraped out from fluorescent blots visualized with irradiation of ultraviolet ray, and the values of ultraviolet absorption at 260 nm were measured, thereby temporary changes of concentration of ATP in a reaction solution were determined. In an experiment where glucose was not added, as reaction proceeded, the concentration of ATP in the reaction solution was decreased (large ● in FIG. 3B) and in three hours after the reaction, decreased to around 60%. Kinetics of this decrease in concentration of ATP is well consistent with a decrease in the concentration of glucose (● in FIG. 3A). […] Though data are not shown, when protein synthesis reaction was conducted using an extract solution of 25 OD 260 nm, a decrease in the concentration of ATP was hardly shown until four hours after reaction, and along with it, the protein synthesis reaction was sustained linearly almost for four hours.
# [2] = tested on: wheat embryo cell-free protein synthesis; assay: Stability of protein synthesis activity after 3 h preincubation at 26° C. without mRNA, then solution exchange; type: biochemical; settings: 0.5 mM, no mRNA or 14C-leucine during incubation, FIG. 2C
# Protocol: Next, destabilization of protein synthesis was further examined. Namely, samples obtained before and after Amicon ultra-centrifugal filtration as described above (but mRNA and ^14C-leucine had not been contained), were incubated for three hours at 26° C. (hereinafter, described as preincubation), and then both reaction solutions were respectively passed through Sephadex G25 spin column which had been equilibrated with a translation solution (containing amino acids, energy sources, various ions and buffer) for changing to a fresh translation solution, and after that, mRNA and ^14C-leucine were added to measure the activity of protein synthesis.
# Next, to confirm the destabilization phenomena of protein synthesis system resulting from the addition glucose and preincubation, the system was incubated in the presence of 0.5 mM glucose (the system contained neither mRNA or ^14C-leucine) and the stability was examined in the same manner as explained in FIG. 1B.
structure (smiles),measurement,setting,value
Nc1ncnc2c1ncn2[C@@H]1O[C@H](COP(=O)(O)O)[C@@H](O)[C@H]1O [AMP],"Inhibition of protein synthesis, nucleotide added alone",[1],inhibition of protein synthesis was not exhibited
Nc1nc2c(ncn2[C@@H]2O[C@H](COP(=O)(O)O)[C@@H](O)[C@H]2O)c(=O)[nH]1 [GMP],"Inhibition of protein synthesis, nucleotide added alone",[1],inhibition of protein synthesis was not exhibited
O=C[C@@H](O)[C@H](O)[C@@H](O)[C@@H](O)CO [L-glucose],Effect of standard sugar on protein synthesis,[1],no inhibitory effects
same,ATP remained after adding sugar,"ATP in reaction solution; 1 mM added, FIG. 3B",~50%
C=C(OP(=O)(O)O)C(=O)O [Phosphoenolpyruvic acid],Effect of standard sugar on protein synthesis,[1],no inhibitory effects on protein synthesis
O=C(CO)[C@@H](O)[C@H](O)[C@H](O)CO [fructose],Effect of standard sugar on protein synthesis,[1],strong protein synthesis inhibitory effects
same,Concentration of ATP in system after adding sugar,ATP in reaction solution,below the detection limit
O=C[C@H](O)[C@@H](O)[C@@H](O)[C@H](O)CO [galactose],Effect of standard sugar on protein synthesis,[1],strong protein synthesis inhibitory effects
same,Concentration of ATP in system after adding sugar,ATP in reaction solution,below the detection limit
"O=C[C@H](O)[C@@H](O)[C@H](O)[C@H](O)CO [glucose, D-glucose]",Protein synthesis capacity after preincubation in the presence of sugar,[2],irreversibly inactivates a protein synthesis capacity
same,Effect on protein synthesis when added back in an equivalent amount to highly functionalized protein synthesis solution,[1],strong inhibitory and destabilization effects
same,Time until protein synthesis reaction terminated after adding back,[1],two
same,Effect of standard sugar on protein synthesis,[1],strong protein synthesis inhibitory effects
same,ATP in the reaction solution after adding sugar,"ATP in reaction solution; 1 mM added, in an hour, FIG. 3B",almost all ATP in the reaction solution was consumed
O=C[C@H](O)[C@@H](O)[C@H](O)[C@H](O)COP(=O)(O)O [glucose-6-phosphate],Effect of standard sugar on protein synthesis,[1],strong protein synthesis inhibitory effects
CC(=O)C(=O)O [pyruvic acid],Effect of standard sugar on protein synthesis,[1],no inhibitory effects on protein synthesis
OC[C@H]1O[C@H](OC[C@H]2O[C@H](O[C@]3(CO)O[C@H](CO)[C@@H](O)[C@@H]3O)[C@H](O)[C@@H](O)[C@@H]2O)[C@H](O)[C@@H](O)[C@H]1O [raffinose],Effect on protein synthesis when added back in an equivalent amount to highly functionalized protein synthesis solution,[1],did not show inhibitory effects
OC[C@H]1O[C@@](CO)(O[C@H]2O[C@H](CO)[C@@H](O)[C@H](O)[C@H]2O)[C@@H](O)[C@@H]1O [sucrose],Effect on protein synthesis when added back in an equivalent amount to highly functionalized protein synthesis solution,[1],strong inhibitory and destabilization effects
same,Time until protein synthesis reaction terminated after adding back,[1],two
same,Effect of standard sugar on protein synthesis,[1],strong protein synthesis inhibitory effects
same,Concentration of ATP in system after adding sugar,ATP in reaction solution,below the detection limit
